Measurements taken from US10544112B2, “Identification of ebsulfur analogues with broad-spectrum antifungal activity” (priority 2017, dated 2020).

System: C. albicans ATCC 10231 (strain A)
Assay: ROS production assay (DCFH-DA)
Format: cell-based, Candida albicans
Details: 1× and 2× MIC (H2O2 1 mM), 1-h treatment
Method: ROS production assay was performed as previously described with minor modifications. […] Once entering the cells, the DCFH-DA probe is first hydrolyzed to the non-fluorescent 2′,7′-dichlorodihydrofluorescein (DCFH) by cellular esterases. […] A colony of C. albicans ATCC 10231 (strain A) was used to inoculate 5 mL of PDB in a Falcon tube and grown overnight at 35° C. at 200 rpm.
Thus, whether the compounds of the invention would also induce ROS against C. albicans was studied. […] 2′,7′-dichlorodihydrofluorescin diacetate (DCFH-DA) was then used to detect and visualize ROS production (FIG. 5). As a positive control, cells were treated with H2O2, which is an inducer of hydroxyl radical formation.

CCCCCn1sc2ccccc2c1=O [Compound 3a]
ROS induction (DCFH-DA fluorescence): highly fluorescent
